The values that follow come from US20260109707A1, “HETEROBIFUNCTIONAL COMPOUNDS AND METHODS OF TREATING DISEASE” (Halda Therapeutics OpCo. Inc., priority 2022, published 2026).

Assay [1] has as its system T-Rex 293 cell line SC3 cells having increased expression of androgen receptor protein due to exposure to doxycycline. As to the kind of experiment: Cellular growth inhibition assay, T-Rex 293 SC3 cells with doxycycline (CellTiter-Glo, 72 hours). The class given is cell-based. The settings on record: T-Rex 293 SC3 cells with increased androgen receptor expression due to doxycycline (10 ng/mL). As to the method: (§1) The following types of cells were prepared for this experiment: (i) a T-Rex 293 cell line having increased expression of androgen receptor protein due to exposure to doxycycline and (ii) a T-Rex 293 cell line lacking increased expression of androgen receptor protein. Ability of the test compounds to inhibit proliferation of the foregoing cell types was evaluated according to the procedures set forth below.
(§2) The doxycycline-inducible androgen receptor protein expressing cell line was established using the following protocol: T-Rex 293 cells were purchased from Invitrogen (Cat #R71007) and transfected using Lipofectamine 2000 with the wild-type androgen receptor protein sequence cloned into the pcDNA4/TO vector. Transfected cells were selected using 400 μg/mL Zeocin (Invitrogen Cat #R25001). Following selection, single clones were raised and maintained in Dulbecco's Modified Eagle Medium (DMEM) supplemented with 10% w/w Tetracycline-free fetal bovine serum (FBS) and 250 μg/mL Zeocin. Clones were analyzed for expression of androgen receptor protein in the presence and absence of 10 ng/mL doxycycline (Sigma Cat #D9891), and a single doxycycline-inducible clone (hereinafter “SC3”) was selected for use in downstream assays.
(§3) The SC3 cells were seeded on poly-D-lysine coated, black clear-bottom 384-well plates at 2500/well, in 25 μL Phenol Red Free Dulbecco's Modified Eagle Medium (DMEM) supplemented with 10% w/w charcoal-dextran treated fetal bovine serum (FBS) and 1% w/w pen-strep, with or without 10 ng/mL doxycycline. Pen-Strep is a commercially available mixture of penicillin G and streptomycin, which is used in mammalian cell culture media to prevent bacterial contamination. Phenol Red Free Dulbecco's Modified Eagle Medium (DMEM) supplemented with 10% w/w charcoal-dextran treated fetal bovine serum (FBS) and 1% w/w pen-strep, with or without 10 ng/mL doxycycline is herein referred to as Treatment Medium. Following seeding of cells in the plates, the plates were spun at 300×g for 30 seconds, then equilibrated to room temperature for 30 minutes, and then deposited in a humidified tissue culture incubator maintained at 37° C. with 5% CO2.
(§4) At 24 hours after seeding of the cells, dilutions of test compound were prepared in DMSO and dissolved in Treatment Medium, to achieve a final DMSO concentration of 0.5% w/w, thereby providing the Test Compound Solution. A 25 μL aliquot of the Test Compound Solution was added to cells in the well plates. An equal volume of a solution containing DMSO and Treatment Medium was used as a negative control. Following treatment of cells with Test Compound Solution or said equal volume of a solution containing DMSO and Treatment Medium, the plates were spun at 300×g for 30 seconds, and then left in an incubator for 72 hours.
(§5) At the end of the treatment duration, cell viability was quantified with CellTiter-Glo 2.0 reagent (Promega Cat #G9243). For this purpose, plates were equilibrated to room temperature for 30 minutes, and then 25 μL of CellTiter-Glo 2.0 reagent was added to cells in the plate wells. Plates were then agitated on a shaker for two minutes at 500 rpm and subsequently incubated at room temperature for 10 minutes. Following incubation, the plates were spun at 3000×g for 30 seconds, then sealed with an optical adhesive cover, and luminescence readings were measured with an EnVision Plate Reader.
(§6) Data was normalized using zero luminescence for baseline. A four-parameter non-linear regression curve fit was applied to dose-response data in GraphPad Prism data analysis software to determine the half-maximal growth inhibitory concentration (GI50) for each test compound.

Assay [2] concerns T-Rex 293 cell line SC3 cells lacking increased expression of androgen receptor protein. As to the kind of experiment: Cellular growth inhibition assay, T-Rex 293 SC3 cells without doxycycline (CellTiter-Glo, 72 hours). The class given is cell-based. The settings on record: T-Rex 293 cell line SC3 cells not exposed to doxycycline (lacking increased androgen receptor expression). As to the method: as §1, §2, §3, §4, §5, §6
(In general: Cellular ATP, detected with luciferase, serves as a proxy for viable cell number.)

The term GI50 denotes the concentration at which growth is held to half of that of the control. Lower therefore signals greater sensitivity of the cells.

The structures appear in SMILES notation.

Regarding `Cc1sc2c(c1C)C(c1ccc(N3CCCC(CNc4ncc(C(=O)NC5CCC(Oc6ccc(C#N)c(Cl)c6)CC5)cn4)C3)cc1)=NC(Cc1ncco1)c1nnc(C)n1-2` (mixture of isomers) [I-810], the GI50 in assay [1] is less than 500 nM; in assay [2], 500 to 1500 nM.

On to `Cc1sc2c(c1C)C(c1ccc(NCC3CN(c4ncc(C(=O)NC5CCC(Oc6ccc(C#N)c(Cl)c6)CC5)cn4)CCO3)cc1)=NC(Cc1ncco1)c1nnc(C)n1-2` (mixture of isomers) [I-814], for which the GI50 in assay [1] and in assay [2] was less than 500 nM throughout.

As for `Cc1sc2c(c1C)C(c1ccc(N3CC4CC3CN4c3ncc(C(=O)NC4CCC(Oc5ccc(C#N)c(Cl)c5)CC4)cn3)cc1)=NC(Cc1ncco1)c1nnc(C)n1-2` (mixture of isomers) [I-815], the GI50 in assay [1] and in assay [2] was less than 500 nM throughout.

As to `Cc1sc2c(c1C)C(c1ccc(N3CCC4(CC3)CCN(c3ncc(C(=O)N[C@H]5CC[C@H](Oc6ccc(C#N)c(Cl)c6)CC5)cn3)C4)cc1)=NC(Cc1ncco1)c1nnc(C)n1-2` (mixture of isomers) [I-779], the GI50 in assay [1] and in assay [2] was less than 500 nM in each case.

For `Cc1sc2c(c1C)C(c1ccc(N3CCN(C4CCN(c5ncc(C(=O)N[C@H]6CC[C@H](Oc7ccc(C#N)c(Cl)c7)CC6)cn5)C4)CC3)cc1)=NC(Cc1ncco1)c1nnc(C)n1-2` (mixture of isomers) [I-783], the GI50 in assay [1] and in assay [2] was less than 500 nM throughout.

Take `Cc1sc2c(c1C)C(c1ccc(C#CC3CC4(CCCN(c5ccc(C(=O)N[C@H]6CC[C@H](Oc7ccc(C#N)c(Cl)c7)CC6)nn5)C4)C3)cc1)=NC1(CC1)c1nnc(C)n1-2` (stereo partly shown) [I-472]: the values for the GI50 in assay [1] (72 h) and in assay [2] were less than 500 nM and greater than 3000 nM, respectively.

In assay [1] (72 h), `Cc1sc2c(c1C)C(c1ccc(N3CCC4(CCN(c5ccc(C(=O)N[C@H]6CC[C@H](Oc7ccc(C#N)c(Cl)c7)CC6)nn5)C4)C3)cc1)=N[C@@H](C)c1nnc(C)n1-2` (stereo partly shown) [I-535] showed a GI50 of less than 500 nM.

In assay [2] (72 h), `COC[C@@H]1N=C(c2ccc(C3CCC4(CC3)CCN(c3ccc(C(=O)N[C@H]5CC[C@H](Oc6ccc(C#N)c(Cl)c6)CC5)nn3)C4)cc2)c2c(sc(C)c2C)-n2c(C)nnc21` (stereo partly shown) [I-602] yielded a GI50 of less than 500 nM.

Take `Cc1sc2c(c1C)C(c1ccc(CC3CC(OC4CCN(c5ccc(C(=O)NC6CCC(Oc7ccc(C#N)c(Cl)c7)CC6)nn5)CC4)C3)cc1)=NC(C)c1nnc(C)n1-2` (stereo not shown) [I-603]: the GI50 in assay [1] (72 h) and in assay [2] (72 h) was less than 500 nM each time.

In assay [1] (72 h), `COC[C@@H]1N=C(c2ccc(OC3CC4(CCCN(c5ccc(C(=O)N[C@H]6CC[C@H](Oc7ccc(C#N)c(Cl)c7)CC6)nn5)C4)C3)cc2)c2c(sc(C)c2C)-n2c(C)nnc21` (stereo partly shown) [I-661] displayed a concentration for 50% growth inhibition (GI50) of less than 500 nM.

Take `Cc1sc2c(c1C)C(c1ccc(N3C[C@@H]4CN(c5ccc(C(=O)N[C@H]6CC[C@H](Oc7ccc(C#N)c(Cl)c7)CC6)nn5)C[C@H]4C3)cc1)=N[C@@H](C)c1nnc(C)n1-2` [I-705]: the GI50 in assay [2] (72 h) was less than 500 nM.

Turning to `Cc1sc2c(c1C)C(c1ccc(N[C@H]3CCN(c4ncc(C(=O)N[C@H]5CC[C@H](Oc6ccc(C#N)c(Cl)c6)CC5)cn4)C3)cc1)=NC(Cc1ncco1)c1nnc(C)n1-2` (stereo partly shown) [I-773], the GI50 in assay [1] (72 h) and in assay [2] (72 h) was 500 to 1500 nM throughout.

In the case of `Cc1sc2c(c1C)C(c1ccc(NCCN3CCN(c4ncc(C(=O)N[C@H]5CC[C@H](Oc6ccc(C#N)c(Cl)c6)CC5)cn4)CC3)cc1)=NC(Cc1ncco1)c1nnc(C)n1-2` (stereo partly shown) [I-774], the GI50 in assay [1] (72 h) and in assay [2] (72 h) was less than 500 nM throughout.

As to `Cc1sc2c(c1C)C(c1ccc(N[C@H]3CC[C@@H](Nc4ncc(C(=O)N[C@H]5CC[C@H](Oc6ccc(C#N)c(Cl)c6)CC5)cn4)CC3)cc1)=NC(Cc1ncco1)c1nnc(C)n1-2` (stereo partly shown) [I-775], the GI50 was less than 500 nM in assay [1] (72 h) and greater than 3000 nM in assay [2] (72 h).

As to `Cc1sc2c(c1C)C(c1ccc(N3CC[C@H](Nc4ncc(C(=O)N[C@H]5CC[C@H](Oc6ccc(C#N)c(Cl)c6)CC5)cn4)C3)cc1)=NC(Cc1ncco1)c1nnc(C)n1-2` (stereo partly shown) [I-776], the GI50 in assay [1] (72 h) and in assay [2] (72 h) was less than 500 nM each time.

With `Cc1sc2c(c1C)C(c1ccc(N3CC4(CCN(c5ncc(C(=O)N[C@H]6CC[C@H](Oc7ccc(C#N)c(Cl)c7)CC6)cn5)CC4)C3)cc1)=NC(Cc1ncco1)c1nnc(C)n1-2` (stereo partly shown) [I-777], the GI50 in assay [1] (72 h) and in assay [2] (72 h) was less than 500 nM in each case.

With `Cc1sc2c(c1C)C(c1ccc(N3CCC(C)(Nc4ncc(C(=O)N[C@H]5CC[C@H](Oc6ccc(C#N)c(Cl)c6)CC5)cn4)CC3)cc1)=NC(Cc1ncco1)c1nnc(C)n1-2` (stereo partly shown) [I-778], the GI50 in assay [1] (72 h) and in assay [2] (72 h) was less than 500 nM each time.

Turning to `Cc1sc2c(c1C)C(c1ccc(N3CC(N4CCN(c5ncc(C(=O)N[C@H]6CC[C@H](Oc7ccc(C#N)c(Cl)c7)CC6)cn5)CC4)C3)cc1)=NC(Cc1ncco1)c1nnc(C)n1-2` (stereo partly shown) [I-780], the 50% growth inhibitory concentration (GI50) in assay [1] (72 h) and in assay [2] (72 h) was less than 500 nM each time.

Take `Cc1sc2c(c1C)C(c1ccc(N[C@H]3CCN(c4ncc(C(=O)N[C@H]5CC[C@H](Oc6ccc(C#N)c(Cl)c6)CC5)cn4)C[C@@H]3F)cc1)=NC(Cc1ncco1)c1nnc(C)n1-2` (stereo partly shown) [I-781]: the GI50 in assay [1] (72 h) and in assay [2] (72 h) was less than 500 nM throughout.

Regarding `Cc1sc2c(c1C)C(c1ccc(N3[C@@H]4CC[C@H]3C[C@@H](Nc3ncc(C(=O)N[C@H]5CC[C@H](Oc6ccc(C#N)c(Cl)c6)CC5)cn3)C4)cc1)=NC(Cc1ncco1)c1nnc(C)n1-2` (stereo partly shown) [I-782], the GI50 in assay [1] was less than 500 nM; in assay [2], greater than 3000 nM.

Consider `Cc1sc2c(c1C)C(c1ccc(NCC3CCCN(c4ncc(C(=O)N[C@H]5CC[C@H](Oc6ccc(C#N)c(Cl)c6)CC5)cn4)C3)cc1)=NC(Cc1ncco1)c1nnc(C)n1-2` (stereo partly shown) [I-809], for which the GI50 was less than 500 nM in assay [1] (72 h) and greater than 3000 nM in assay [2] (72 h).

Take `Cc1sc2c(c1C)C(c1ccc(NCCC3CCN(c4ncc(C(=O)N[C@H]5CC[C@H](Oc6ccc(C#N)c(Cl)c6)CC5)cn4)CC3)cc1)=NC(Cc1ncco1)c1nnc(C)n1-2` (stereo partly shown) [I-811]: the GI50 in assay [1] (72 h) and in assay [2] (72 h) was less than 500 nM in each case.

On to `Cc1sc2c(c1C)C(c1ccc(N3CCCC4(CCN(c5ncc(C(=O)N[C@H]6CC[C@H](Oc7ccc(C#N)c(Cl)c7)CC6)cn5)CC4)C3)cc1)=NC(Cc1ncco1)c1nnc(C)n1-2` (stereo partly shown) [I-812], for which the GI50 in assay [1] (72 h) was less than 500 nM; in assay [2] (72 h) it was greater than 3000 nM.

Consider `Cc1sc2c(c1C)C(c1ccc(N3C[C@H](F)C[C@@H](Nc4ncc(C(=O)N[C@H]5CC[C@H](Oc6ccc(C#N)c(Cl)c6)CC5)cn4)C3)cc1)=NC(Cc1ncco1)c1nnc(C)n1-2` (stereo partly shown) [I-813], for which the GI50 in assay [1] (72 h) and in assay [2] (72 h) was less than 500 nM in each case.

In the case of `Cc1sc2c(c1C)C(c1ccc(N3CCCN(CCCNc4ncc(C(=O)N[C@H]5CC[C@H](Oc6ccc(C#N)c(Cl)c6)CC5)cn4)CC3)cc1)=NC(Cc1ncco1)c1nnc(C)n1-2` (stereo partly shown) [I-816], the GI50 in assay [1] (72 h) is less than 500 nM; in assay [2] (72 h), greater than 3000 nM.

With `Cc1sc2c(c1C)C(c1ccc(N3CCC(C)(CNc4ncc(C(=O)N[C@H]5CC[C@H](Oc6ccc(C#N)c(Cl)c6)CC5)cn4)CC3)cc1)=NC(Cc1ncco1)c1nnc(C)n1-2` (stereo partly shown) [I-817], the GI50 in assay [1] (72 h) and in assay [2] (72 h) was less than 500 nM throughout.

For the molecule `Cc1sc2c(c1C)C(c1ccc(N3CCC4(CC3)CC(Nc3ncc(C(=O)N[C@H]5CC[C@H](Oc6ccc(C#N)c(Cl)c6)CC5)cn3)C4)cc1)=NC(Cc1ncco1)c1nnc(C)n1-2` (stereo partly shown) [I-818], the GI50 in assay [1] (72 h) and in assay [2] (72 h) was less than 500 nM each time.

With `Cc1sc2c(c1C)C(c1ccc(N3CCO[C@@H](CNc4ncc(C(=O)N[C@H]5CC[C@H](Oc6ccc(C#N)c(Cl)c6)CC5)cn4)C3)cc1)=NC(Cc1ncco1)c1nnc(C)n1-2` (stereo partly shown) [I-819], the concentration for 50% growth inhibition (GI50) in assay [1] (72 h) and in assay [2] (72 h) was less than 500 nM each time.
